This is an account of results in ChEMBL document CHEMBL3301361, “Experimental in vitro DMPK and physicochemical data on a set of publicly disclosed compounds”.

This series in a line: physchem. The settings on record: octan-1-ol/water, pH 7.4, LogD7.4.
The compound `O=S(=O)(NCC(c1ccccc1)N1CCCCCC1)c1cccc(C(F)(F)F)c1` (stereo not given) registered a logD of 3.12.

As to `COc1ccc(S(=O)(=O)NCC(c2ccccc2)N2CCCCCC2)cc1` (stereo not given), the logD is 3.13.

Take `CCN1CCN(C(=O)c2cc3cc(Cl)ccc3[nH]2)CC1`: the logD was found to be 3.14.

The compound `Nc1c2c(nc3ccc(Br)cc13)N(c1ccccc1)CC2` gave a logD of 3.12.

In turn, `O=C1CCOc2nc(OCc3ccccc3)ccc21` returned a logD of 3.1.

In turn, `CN1CCOc2cc(COC3CCCCC3)cnc21` gave a logD of 3.1.

Compound `CC[C@H](NC(=O)c1c([S+](C)[O-])c(-c2ccccc2)nc2ccccc12)c1ccccc1` (stereo not given in full) registered a logD of 3.17.

For the compound `CC[C@H](NC(=O)c1c(CC[S+](C)[O-])c(-c2ccccc2)nc2ccccc12)c1ccccc1` (stereo not given in full), the logD was 3.15.

On to `CC[C@H](NC(=O)c1c([S+](C)[O-])c(-c2cccc(F)c2)nc2ccccc12)c1ccccc1` (stereo not given in full), for which the logD was found to be 3.14.

With `Cc1ncccc1Oc1ncnc(OC2C3COCC2CN(C(=O)OC(C)C)C3)c1C` (stereo not given), the pH-dependent lipophilicity (logD) was found to be 3.1.

`COc1cc(N2CCN(CCS(C)(=O)=O)CC2)ccc1Nc1ncc(Cl)c(-c2cnc3ccccn23)n1` had a logD of 3.1.

In turn, `CN(C)c1nc(N[C@H]2CC[C@@H](NC(=O)c3ccc(F)c(F)c3)CC2)nc2ccccc12` came in with a logD of 3.13.

In the case of `COc1ccc(C(=O)Nc2cc(NC(=O)c3cccc(N(C)C)c3)ccc2C)cc1`, the logD was found to be 3.17.

In the case of `COc1ccc(-c2nc3c(NCCCNC(=O)C4CCCC4)c(C(N)=O)cnc3[nH]2)cc1`, the logD amounted to 3.13.

In the case of `CN(C)C(=O)N[C@H]1CC[C@H](CCN2CCN(c3ccc(Cl)c(Cl)c3)CC2)CC1`, the logD stood at 3.15.

With `Cc1ccc(-c2ncc(CN3CCOCC3)s2)cc1NC(=O)c1ccc(OCc2ccccn2)cc1`, the log distribution coefficient (logD) was determined as 3.1.

Regarding `CCN(CC)CCOc1ccc(N(C)C(=O)c2ccc(-c3ccc(C(F)(F)F)cc3)cc2)cc1OC`, the logD was 3.13.

For the compound `CC(C)Cn1c(=O)n(C)c(=O)c2c(C(=O)N3C[C@H](O)CO3)c(Cc3ccccc3C(F)(F)F)sc21`, the log distribution coefficient (logD) worked out at 3.15.

As to `CN(C)S(=O)(=O)c1ccc2c(C(=O)NC[C@@H](O)CN3CCC(Oc4ccc(Cl)c(Cl)c4)CC3)c[nH]c(=O)c2c1`, the logD turned out to be 3.13.

On to `O=C(NC[C@@H](O)CN1CCC(Oc2ccc(Cl)c(Cl)c2)CC1)c1c[nH]c(=O)c2c(F)cccc12`, for which the log distribution coefficient (logD) was 3.15.

On to `O=C(NC[C@@H](O)CN1CCC(Oc2ccc(Cl)c(Cl)c2)CC1)c1c[nH]nc1C1CC1`, for which the logD is 3.15.

Compound `C[S+]([O-])CCN1C(=O)C(NC(=O)c2cc3cc(Cl)sc3[nH]2)Cc2ccccc21` (stereo not given) had a logD of 3.17.

`CC(=O)NC(C)c1ccc(Nc2ncc3cc(-c4ccncc4)ccc3n2)cc1` (stereo not given) registered a log distribution coefficient (logD) of 3.1.

Consider `COc1cc2nc(Nc3ccc([C@@H](C)NC(C)=O)cc3)ncc2cc1-c1ccncc1`, for which the logD stood at 3.11.

In turn, `c1cn(-c2ccc(Oc3cc(Oc4ccc5c(c4)OCO5)ncn3)cc2)cn1` yielded a logD of 3.17.

`COc1cc2ncnc(Nc3ccc(F)c(Cl)c3)c2cc1OCCCN1CCCC1`: the logD amounted to 3.13.

As to `CC(O)(C(=O)Nc1ccc(S(=O)(=O)c2ccc(F)cc2)cc1)C(F)(F)F` (stereo not given), the logD stood at 3.12.

Consider `C[C@H](CO)Nc1nc(SCc2cccc(F)c2F)nc2nccnc12`, for which the logD is 3.15.

With `COc1ccc(C(=O)Nc2cc(NC(=O)c3cccc(N(C)C)c3)ccc2C)cc1OC`, the logD is 3.12.

`Cc1ncc(-c2nc(Nc3ccc(C(N)=O)c(F)c3)ncc2F)n1C(C)C` registered a logD of 3.14.

Compound `O=c1oc2ccc(O)cc2cc1-c1ccccc1` yielded a logD of 3.12.

In turn, `Cc1ccc(NC(=O)c2cccc(C(F)(F)F)c2)cc1NC(=O)c1cccnc1` returned a logD of 3.11.

As to `COc1cc2ncc(C(N)=O)c(Nc3cc(C)ccc3F)c2cc1OC`, the logD was determined as 3.16.

On to `O=C(CC1CCN(Cc2ccn(-c3ccc(C(F)(F)F)cc3)c2)CC1)NC(c1ccc(F)cc1)c1c[nH]c(=O)c(Cl)c1` (stereo not given), for which the logD worked out at 3.12.

Consider `CCNc1nc(C#N)nc(Nc2ccccc2)n1`, for which the logD was 3.11.

A word on the logD: it is the decadic logarithm of the distribution of all forms, ionised or not, between an organic phase and buffer at a given pH. Low readings indicate a more hydrophilic compound, high ones a more lipophilic compound.
